{"source": "ChEMBL document CHEMBL1240505", "about": "“Studies on preparation and photodynamic mechanism of chlorin P6-13,15-N-(cyclohexyl)cycloimide (Chlorin-H) and its antitumor effect for photodynamic therapy in vitro and in vivo” (Bioorg Med Chem, 2010)", "key": {"A549 [1]": {"tested_on": "A549", "experiment": "Induction of apoptosis in human A549 cells assessed as late apoptotic cells at 4 uM after 24 hrs using annexin-V-PE/7-AAD double staining by flow cytometry", "format": "functional"}, "A549 [2]": {"tested_on": "A549", "experiment": "Induction of apoptosis in human A549 cells assessed as viable cells at 4 uM after 24 hrs using annexin-V-PE/7-AAD double staining by flow cytometry", "format": "functional", "conditions": "A549, 24 h, read-out: Activity"}, "A549 [3]": {"tested_on": "A549", "experiment": "Induction of apoptosis in human A549 cells assessed as apoptotic cells at 4 uM after 24 hrs using annexin-V-PE/7-AAD double staining by flow cytometry", "format": "functional"}, "A549 [4]": {"tested_on": "A549", "experiment": "Induction of apoptosis in human A549 cells assessed as pre-necrotic cells at 4 uM after 24 hrs followed by irradiated with light dose 0.18 J/cm2 using annexin-V-PE/7-AAD double staining by flow cytometry", "format": "functional"}, "A549 [5]": {"tested_on": "A549", "experiment": "Induction of apoptosis in human A549 cells assessed as late apoptotic cells at 4 uM after 24 hrs followed by irradiated with light dose 0.18 J/cm2 using annexin-V-PE/7-AAD double staining by flow cytometry", "format": "functional"}, "A549 [6]": {"tested_on": "A549", "experiment": "Induction of apoptosis in human A549 cells assessed as viable cells at 4 uM after 24 hrs followed by irradiated with light dose 0.18 J/cm2 using annexin-V-PE/7-AAD double staining by flow cytometry", "format": "functional", "conditions": "A549, light or radiation study, read-out: Activity"}, "A549 [7]": {"tested_on": "A549", "experiment": "Induction of apoptosis in human A549 cells assessed as apoptotic cells at 4 uM after 24 hrs followed by irradiated with light dose 0.18 J/cm2 using annexin-V-PE/7-AAD double staining by flow cytometry", "format": "functional"}, "A549 [8]": {"tested_on": "A549", "experiment": "Induction of apoptosis in human A549 cells transfected with lentivirus TNFSF13-siRNA assessed as cell survival at 4 uM after 24 hrs followed by irradiated with light dose 0.18 J/cm2 by MTT assay", "format": "functional", "conditions": "A549, light or radiation study, read-out: Activity"}, "A549 [9]": {"tested_on": "A549", "experiment": "Induction of apoptosis in human A549 cells transfected with lentivirus GFP assessed as cell survival at 4 uM after 24 hrs followed by irradiated with light dose 0.18 J/cm2 by MTT assay", "format": "functional", "conditions": "A549, light or radiation study, read-out: Activity"}, "A549 [10]": {"tested_on": "A549", "experiment": "Induction of apoptosis in human A549 cells assessed as live mitochondrial membrane polarized cells at 4 uM after 24 hrs using JC-1 staining by flow cytometry", "format": "functional"}, "A549 [11]": {"tested_on": "A549", "experiment": "Induction of apoptosis in human A549 cells assessed as late apoptotic mitochondrial membrane depolarized cells at 4 uM after 24 hrs using JC-1 staining by flow cytometry", "format": "functional"}, "A549 [12]": {"tested_on": "A549", "experiment": "Induction of apoptosis in human A549 cells assessed as live mitochondrial membrane depolarized cells at 4 uM after 24 hrs using JC-1 staining by flow cytometry", "format": "functional"}, "A549 [13]": {"tested_on": "A549", "experiment": "Induction of apoptosis in human A549 cells assessed as dying mitochondrial membrane depolarized cells at 4 uM after 24 hrs using JC-1 staining by flow cytometry", "format": "functional"}, "A549 [14]": {"tested_on": "A549", "experiment": "Induction of apoptosis in human A549 cells assessed as live mitochondrial membrane polarized cells at 4 uM after 24 hrs followed by irradiated with light dose 0.18 J/cm2 using JC-1 staining by flow cytometry", "format": "functional"}, "A549 [15]": {"tested_on": "A549", "experiment": "Induction of apoptosis in human A549 cells assessed as late apoptotic mitochondrial membrane depolarized cells at 4 uM after 24 hrs followed by irradiated with light dose 0.18 J/cm2 using JC-1 staining by flow cytometry", "format": "functional"}, "A549 [16]": {"tested_on": "A549", "experiment": "Induction of apoptosis in human A549 cells assessed as live mitochondrial membrane depolarized cells at 4 uM after 24 hrs followed by irradiated with light dose 0.18 J/cm2 using JC-1 staining by flow cytometry", "format": "functional"}, "A549 [17]": {"tested_on": "A549", "experiment": "Induction of apoptosis in human A549 cells assessed as dying mitochondrial membrane depolarized cells at 4 uM after 24 hrs followed by irradiated with light dose 0.18 J/cm2 using JC-1 staining by flow cytometry", "format": "functional"}, "A549 [18]": {"tested_on": "A549", "experiment": "Induction of apoptosis in human A549 cells assessed as upregulation of Bcl2 mRNA expression at 4 uM after 24 hrs followed by irradiated with light dose 0.18 J/cm2 by RT-PCR analysis", "format": "functional, cell-based"}, "A549 [19]": {"tested_on": "A549", "experiment": "Induction of apoptosis in human A549 cells assessed as upregulation of Smac mRNA expression at 4 uM after 24 hrs followed by irradiated with light dose 0.18 J/cm2 by RT-PCR analysis", "format": "functional, cell-based"}, "A549 [20]": {"tested_on": "A549", "experiment": "Induction of apoptosis in human A549 cells assessed as upregulation of XIAP mRNA expression at 4 uM after 24 hrs followed by irradiated with light dose 0.18 J/cm2 by RT-PCR analysis", "format": "functional, cell-based"}, "A549 [21]": {"tested_on": "A549", "experiment": "Induction of apoptosis in human A549 cells assessed as upregulation of TNFSF13 mRNA expression at 4 uM after 24 hrs followed by irradiated with light dose 0.18 J/cm2 by RT-PCR analysis", "format": "functional, cell-based"}, "A549 [22]": {"tested_on": "A549", "experiment": "Induction of apoptosis in human A549 cells assessed as down regulation of […] mRNA expression at 4 uM after 24 hrs followed by irradiated with light dose 0.18 J/cm2 by RT-PCR analysis", "format": "functional, cell-based"}, "A549 [23]": {"tested_on": "A549", "experiment": "Induction of apoptosis in human A549 cells assessed as down regulation of […] mRNA expression at 2 uM after 24 hrs followed by irradiated with light dose 0.18 J/cm2 by RT-PCR analysis", "format": "functional, cell-based"}, "A549 [24]": {"tested_on": "A549", "experiment": "Induction of apoptosis in human A549 cells transfected with lentivirus Smac-siRNA assessed as cell survival at 4 uM after 24 hrs followed by irradiated with light dose 0.18 J/cm2 by MTT assay", "format": "functional", "conditions": "A549, light or radiation study, read-out: Activity"}, "A549 [25]": {"tested_on": "A549", "experiment": "Induction of apoptosis in human A549 cells transfected with lentivirus p53-siRNA assessed as reduction of p53 mRNA level at 4 uM after 24 hrs followed by irradiated with light dose 0.18 J/cm2 by MTT assay", "format": "functional", "parameters": "scale not given: the % may be the effect or the level left"}, "A549 [26]": {"tested_on": "A549", "experiment": "Induction of apoptosis in human A549 cells transfected with lentivirus Smac-siRNA assessed as reduction of Smac mRNA level at 4 uM after 24 hrs followed by irradiated with light dose 0.18 J/cm2 by MTT assay", "format": "functional", "parameters": "scale not given: the % may be the effect or the level left"}, "A549 [27]": {"tested_on": "A549", "experiment": "Induction of apoptosis in human A549 cells transfected with lentivirus GFP assessed as reduction of GFP mRNA level at 4 uM after 24 hrs followed by irradiated with light dose 0.18 J/cm2 by MTT assay", "format": "functional", "parameters": "scale not given: the % may be the effect or the level left"}, "A549 [28]": {"tested_on": "A549", "experiment": "Antitumor activity against human A549 cells xenografted in nude BALB/C mouse assessed as tumor shrinkage at 8 uM after 24 hrs followed by irradiated with light dose 78 J/cm2 measured after 10 days", "format": "functional, cell-based"}, "A549 [29]": {"tested_on": "A549", "experiment": "Antitumor activity against human A549 cells xenografted in nude BALB/C mouse assessed as dark tumor at 8 uM after 24 hrs followed by irradiated with light dose 78 J/cm2 measured after 10 days", "format": "functional, cell-based"}, "A549 [30]": {"tested_on": "A549", "experiment": "Antitumor activity against human A549 cells xenografted in nude BALB/C mouse assessed as hardened tumor at 8 uM after 24 hrs followed by irradiated with light dose 78 J/cm2 measured after 10 days", "format": "functional, cell-based"}, "A549 [31]": {"tested_on": "A549", "experiment": "Antitumor activity against human A549 cells xenografted in nude BALB/C mouse assessed as dry tumor at 8 uM after 24 hrs followed by irradiated with light dose 78 J/cm2 measured after 10 days", "format": "functional, cell-based"}}, "note": "Calls of active or inactive are those of the source. No cut-off for these calls is given here.", "data": [{"smiles": "C=Cc1c(C)c2cc3nc(c4c5[nH]c(cc6nc(cc1[nH]2)C(C)=C6CC)c(C)c5C(=O)N(C1CCCCC1)C4=O)[C@@H](CCC(=O)O)[C@@H]3C", "values": [{"measurement": "Activity", "setting": "A549 [1]", "result": 3.6, "unit": "%"}, {"measurement": "viability at 4 µM", "setting": "A549 [2]", "result": 91, "unit": "%"}, {"measurement": "Activity", "setting": "A549 [3]", "result": 2.96, "unit": "%"}, {"measurement": "Activity", "setting": "A549 [4]", "result": 7.63, "unit": "%"}, {"measurement": "Activity", "setting": "A549 [5]", "result": 27.71, "unit": "%"}, {"measurement": "viability at 4 µM", "setting": "A549 [6]", "result": 9.32, "unit": "%"}, {"measurement": "Activity", "setting": "A549 [7]", "result": 55.33, "unit": "%"}, {"measurement": "viability at 4 µM", "setting": "A549 [8]", "result": 72.1, "unit": "%"}, {"measurement": "viability at 4 µM", "setting": "A549 [9]", "result": 44.9, "unit": "%"}, {"measurement": "Activity", "setting": "A549 [10]", "result": 0, "unit": "%"}, {"measurement": "Activity", "setting": "A549 [11]", "result": 88.88, "unit": "%"}, {"measurement": "Activity", "setting": "A549 [12]", "result": 0.01, "unit": "%"}, {"measurement": "Activity", "setting": "A549 [13]", "result": 9.35, "unit": "%"}, {"measurement": "Activity", "setting": "A549 [14]", "result": 0.01, "unit": "%"}, {"measurement": "Activity", "setting": "A549 [15]", "result": 91.08, "unit": "%"}, {"measurement": "Activity", "setting": "A549 [16]", "result": 0.01, "unit": "%"}, {"measurement": "Activity", "setting": "A549 [17]", "result": 8.28, "unit": "%"}, {"measurement": "Activity", "setting": "A549 [18]", "result": "Active"}, {"measurement": "Activity", "setting": "A549 [19]", "result": "Active"}, {"measurement": "Activity", "setting": "A549 [20]", "result": "Active"}, {"measurement": "Activity", "setting": "A549 [21]", "result": "Active"}, {"measurement": "Activity", "setting": "A549 [22]", "result": "Active"}, {"measurement": "Activity", "setting": "A549 [23]", "result": "Active"}, {"measurement": "viability at 4 µM", "setting": "A549 [24]", "result": 24.5, "unit": "%"}, {"measurement": "Activity", "setting": "A549 [25]", "result": 60, "unit": "%"}, {"measurement": "Activity", "setting": "A549 [26]", "result": 60, "unit": "%"}, {"measurement": "Activity", "setting": "A549 [27]", "result": 18.8, "unit": "%"}, {"measurement": "Activity", "setting": "A549 [28]", "result": "Active"}, {"measurement": "Activity", "setting": "A549 [29]", "result": "Active"}, {"measurement": "Activity", "setting": "A549 [30]", "result": "Active"}, {"measurement": "Activity", "setting": "A549 [31]", "result": "Active"}]}]}
